Reference: US8399459B2, “1,4 oxazines as BACE1 and/or BACE2 inhibitors” (Hoffmann-La Roche Inc., priority 2011, dated 2013)
Counter-ions that a name gives are not always drawn.

What was measured:
[1] = target: T1, BACE2 (Rattus norvegicus, UniProt Q6IE75); assay: Assay for BACE inhibition by measuring cellular TMEM27 cleavage (INS-TMEM27 cells, ELISA); assay type: cell-based; settings: INS-TMEM27 (INS1e-derived) cells; shed TMEM27 by ELISA
T1 construct: endogenous cellular BACE2 in the Ins1e rat cell line; endogenous in cells; host or cells: INS-TMEM27 (INS1e-derived rat cell line with doxycycline-inducible full-length human TMEM27)
T1 sequence (Q6IE75 63-514): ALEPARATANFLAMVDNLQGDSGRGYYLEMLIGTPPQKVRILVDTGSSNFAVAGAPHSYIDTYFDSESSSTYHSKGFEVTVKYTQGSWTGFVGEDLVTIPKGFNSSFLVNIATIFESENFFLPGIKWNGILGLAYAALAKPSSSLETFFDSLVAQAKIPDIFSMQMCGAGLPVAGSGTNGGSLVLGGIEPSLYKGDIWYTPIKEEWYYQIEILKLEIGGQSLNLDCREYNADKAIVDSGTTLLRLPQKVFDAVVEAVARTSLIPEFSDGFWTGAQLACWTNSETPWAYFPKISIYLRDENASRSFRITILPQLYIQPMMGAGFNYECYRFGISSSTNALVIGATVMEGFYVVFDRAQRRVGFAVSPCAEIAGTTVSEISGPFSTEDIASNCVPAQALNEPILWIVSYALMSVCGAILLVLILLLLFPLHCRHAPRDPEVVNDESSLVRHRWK
Source text: Assay for BACE Inhibition by Measuring Cellular TMEM27 Cleavage:
The assay uses the principle of inhibition of human TMEM27 cleavage by endogenous cellular BACE2 in the Ins1e rat cell line and shedding from the cell surface into the culture medium, followed by detection in an ELISA assay. Inhibition of BACE2 prevents the cleavage and shedding in a dose-dependent manner.
The stable cell line “INS-TMEM27” represents an INS1e-derived cell line with inducible expression (using the TetOn system) of full-length hTMEM27 in a doxycycline-dependent manner. The cells are cultured throughout the experiment in RPMI1640+Glutamax (Invitrogen) Penicillin/Streptomycin, 10% Fetal bovine serum, […], […], 100 micrograms/ml G418 and 100 microgram/ml hygromycin and are grown inadherent culture at 37° C. in a standard CO2 cell culture incubator.
INS-TMEM27 cells are seeded in 96-well plates. After 2 days in culture, BACE2 inhibitor is added in a range of concentrations as required by the assay and after a further two hours, doxycycline is added to a final concentration of 500 ng/ml. The cells are incubated for a further 46 hours and the supernatant harvested for detection of shed TMEM27.
An ELISA assay (using a pair of mouse anti-human-TMEM27 antibodies, raised against the extracellular domain of TMEM27) is used for detection of TMEM27 in the culture medium. An EC50 for BACE2 inhibition is calculated using the ELISA readout for each inhibitor concentration with standard curve-fitting software such as XLFit for the Excel spreadsheet program.

[2] = target: T2, BACE1 (Homo sapiens, UniProt P56817); assay: Cellular Aβ-lowering assay (Aβ40 ELISA, HEK293 cells expressing human APP695); assay type: cell-based; settings: HEK293 cells stably expressing human APP695; Aβ40 in supernatant after 18-20 hrs
T2 construct: Human HEK293 cells which are stably transfected with a vector expressing a cDNA of the human APP wt gene (APP695); endogenous in cells; host or cells: HEK293 (human), stably transfected with human APP695 wt only
T2 sequence (P56817 46-501): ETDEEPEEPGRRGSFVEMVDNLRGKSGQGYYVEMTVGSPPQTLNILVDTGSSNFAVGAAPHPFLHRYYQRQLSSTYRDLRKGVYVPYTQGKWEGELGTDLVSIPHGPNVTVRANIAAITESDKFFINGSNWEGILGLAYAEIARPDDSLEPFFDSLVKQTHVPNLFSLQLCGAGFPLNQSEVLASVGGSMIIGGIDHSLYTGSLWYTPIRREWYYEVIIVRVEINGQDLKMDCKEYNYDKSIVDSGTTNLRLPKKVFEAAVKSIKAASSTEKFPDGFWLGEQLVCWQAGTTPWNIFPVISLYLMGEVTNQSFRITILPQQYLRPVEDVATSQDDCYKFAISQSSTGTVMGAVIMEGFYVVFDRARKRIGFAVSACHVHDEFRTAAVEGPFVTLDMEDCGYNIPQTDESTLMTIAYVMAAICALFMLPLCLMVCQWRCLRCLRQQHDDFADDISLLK
Description: Cellular Aβ-Lowering Assay:
Human HEK293 cells which are stably transfected with a vector expressing a cDNA of the human APP wt gene (APP695) were used to assess the potency of the compounds in a cellular assay. The cells were seeded in 96-well microtiter plates in cell culture medium (Iscove, plus 10% (v/v) fetal bovine serum, glutamine, penicillin/streptomycin) to about 80% confluence and the compounds were added at a 10× concentration in 1/10 volume of medium without FCS containing 8% DMSO (final concentration of DMSO was kept at 0.8% v/v). After 18-20 hrs incubation at 37° C. and 5% CO2 in a humidified incubator the culture supernatant was harvested for the determination of Aβ40 concentrations. 96well ELISA plates (e.g., Nunc MaxiSorb) were coated with monoclonal antibody which specifically recognize the C-terminal end of Aβ40 (Brockhaus et al., NeuroReport 9, 1481-1486; 1998). After blocking of non-specific binding sites with e.g. 1% BSA and washing, the culture supernatants were added in suitable dilutions together with a horseradish peroxidase-coupled Aβ detection antibody (e.g., antibody 4G8, Senetek, Maryland Heights, Mo.) and incubated for 5 to 7 hrs. Subsequently the wells of the microtiter plate were washed extensively with Tris-buffered saline containing 0.05% Tween 20 and the assay was developed with tetramethylbenzidine/H2O2 in citric acid buffer. After stopping the reaction with one volume 1 N H2SO4 the reaction was measured in an ELISA reader at 450 nm wavelength. The concentrations of Aβ in the culture supernatants were calculated from a standard curve obtained with known amounts of pure Aβ peptide.

Compound	IC50 [1]	IC50 [2]
Cc1cc(Cl)cc(-c2cccc(C3(C)COCC(N)=N3)c2)c1 (centres unmarked) [Example 9, 5-(3′-Chloro-5′-methyl-biphenyl-3-yl)-5-methyl-5,6-dihydro-2H-[1,4]oxazin-3-ylamine]	1110 nM	2480 nM
CC1(c2cccc(-c3cncc(Cl)c3)c2)COCC(N)=N1 (centres unmarked) [Example 34, 5-[3-(5-Chloro-pyridin-3-yl)-phenyl]-5-methyl-5,6-dihydro-2H-[1,4]oxazin-3-ylamine]	–	390 nM
C[C@@]1(c2cc(-c3cc(Cl)cc(Cl)c3)ccc2F)COCC(N)=N1 [Example 37, (R)-5-(3′,5′-Dichloro-4-fluoro-biphenyl-3-yl)-5-methyl-5,6-dihydro-2H-[1,4]oxazin-3-ylamine]	120 nM	510 nM
CC1(c2cccc(-c3cncc(C#N)c3)c2)COCC(N)=N1 (centres unmarked) [Example 38, 5-(3-(5-Amino-3-methyl-3,6-dihydro-2H-1,4-oxazin-3-yl)phenyl)nicotinonitrile]	–	310 nM
CC1(c2cccc(-c3cccnc3F)c2)COCC(N)=N1 (centres unmarked) [Example 39, 5-(3-(2-fluoropyridin-3-yl)phenyl)-5-methyl-5,6-dihydro-2H-1,4-oxazin-3-amine]	–	280 nM
CC1(c2cccc(-c3ccc(F)nc3F)c2)COCC(N)=N1 (centres unmarked) [Example 40, 5-(3-(2,6-difluoropyridin-3-yl)phenyl)-5-methyl-5,6-dihydro-2H-1,4-oxazin-3-amine]	–	530 nM
CC1(c2cccc(-c3cccc(N)c3)c2)COCC(N)=N1 (centres unmarked) [Example 41, 5-(3′-Amino-biphenyl-3-yl)-5-methyl-5,6-dihydro-2H-[1,4]oxazin-3-ylamine]	–	3070 nM
COCC#Cc1cccc(C2(C)COCC(N)=N2)c1 (centres unmarked) [Example 42, 5-[3-(3-Methoxy-prop-1-ynyl)-phenyl]-5-methyl-5,6-dihydro-2H-[1,4]oxazin-3-ylamine]	–	1060 nM
CC1(c2cccc(C#Cc3ccc(Cl)cn3)c2)COCC(N)=N1 (centres unmarked) [Example 43, 5-[3-(5-Chloro-pyridin-2-ylethynyl)-phenyl]-5-methyl-5,6-dihydro-2H-[1,4]oxazin-3-ylamine]	–	300 nM
Cc1cc(C2(c3cccc(-c4cccnc4)c3)COCC(N)=N2)ccc1OC(F)F (centres unmarked) [Example 44, 5-(4-Difluoromethoxy-3-methyl-phenyl)-5-(3-pyridin-3-yl-phenyl)-5,6-dihydro-2H-[1,4]oxazin-3-ylamine]	–	60 nM
Cc1cc(C2(c3cccc(-c4ccc(Cl)nc4)c3)COCC(N)=N2)ccc1OC(F)F (centres unmarked) [Example 45, 5-[3-(6-Chloro-pyridin-3-yl)-phenyl]-5-(4-difluoromethoxy-3-methyl-phenyl)-5,6-dihydro-2H-[1,4]oxazin-3-ylamine]	–	360 nM
Cc1cc(C2(c3cccc(-c4cncc(Cl)c4)c3)COCC(N)=N2)ccc1OC(F)F (centres unmarked) [Example 46, 5-[3-(5-Chloro-pyridin-3-yl)-phenyl]-5-(4-difluoromethoxy-3-methyl-phenyl)-5,6-dihydro-2H-[1,4]oxazin-3-ylamine]	30 nM	40 nM
NC1=NC(c2ccc(OC(F)F)nc2)(c2cccc(-c3cncc(Cl)c3)c2)COC1 (centres unmarked) [Example 47, 5-[3-(5-Chloro-pyridin-3-yl)-phenyl]-5-(6-difluoromethoxy-pyridin-3-yl)-5,6-dihydro-2H-[1,4]oxazin-3-ylamine]	–	110 nM
COc1cncc(-c2cccc(C3(c4ccc(OC(F)F)nc4)COCC(N)=N3)c2)c1 (centres unmarked) [Example 48, 5-(6-Difluoromethoxy-pyridin-3-yl)-5-[3-(5-methoxy-pyridin-3-yl)-phenyl]-5,6-dihydro-2H-[1,4]oxazin-3-ylamine]	–	30 nM
CC1(c2cccc(-c3nc4ccc(Cl)cc4o3)c2)COCC(N)=N1 (centres unmarked) [Example 49, 5-[3-(6-Chloro-benzooxazol-2-yl)-phenyl]-5-methyl-5,6-dihydro-2H-[1,4]oxazin-3-ylamine]	200 nM	200 nM
CC1(c2cccc(-c3nc4cc(Cl)ccc4[nH]3)c2)COCC(N)=N1 (centres unmarked) [Example 50, 5-[3-(5-Chloro-1H-benzoimidazol-2-yl)-phenyl]-5-methyl-5,6-dihydro-2H-[1,4]oxazin-3-ylamine]	–	1280 nM
NC1=NC(c2cc(-c3cncnc3)ccc2F)(C(F)F)COC1 (centres unmarked) [Example 51, 5-Difluoromethyl-5-(2-fluoro-5-pyrimidin-5-yl-phenyl)-5,6-dihydro-2H-[1,4]oxazin-3-ylamine]	–	770 nM
NC1=NC(c2cc(-c3cncc(Cl)c3)ccc2F)(C(F)F)COC1 (centres unmarked) [Example 52, 5-[5-(5-Chloro-pyridin-3-yl)-2-fluoro-phenyl]-5-difluoromethyl-5,6-dihydro-2H-[1,4]oxazin-3-ylamine]	–	280 nM
CC1(c2cccc(-c3nc4cc(Cl)ccc4o3)c2)COCC(N)=N1 (centres unmarked) [Example 53, 5-[3-(5-Chloro-benzooxazol-2-yl)-phenyl]-5-methyl-5,6-dihydro-2H-[1,4]oxazin-3-ylamine]	–	1490 nM
CC1(c2cccc(C#Cc3ccccc3)c2)COCC(N)=N1 (centres unmarked) [Example 54, 5-Methyl-5-(3-phenylethynyl-phenyl)-5,6-dihydro-2H-[1,4]oxazin-3-ylamine]	–	1470 nM
CC1(c2cccc(C#Cc3ccsc3)c2)COCC(N)=N1 (centres unmarked) [Example 55, 5-Methyl-5-(3-thiophen-3-ylethynyl-phenyl)-5,6-dihydro-2H-[1,4]oxazin-3-ylamine]	–	2780 nM
COc1cc(-c2cccc(C3(C)COCC(N)=N3)c2)cc(F)c1F (centres unmarked) [Example 56, 5-(4′,5′-Difluoro-3′-methoxy-biphenyl-3-yl)-5-methyl-5,6-dihydro-2H-[1,4]oxazin-3-ylamine formate]	–	2550 nM
CC1(c2cccc(-c3cc(C(F)(F)F)cc(C(F)(F)F)c3)c2)COCC(N)=N1 (centres unmarked) [Example 57, 5-(3′,5′-Bis-trifluoromethyl-biphenyl-3-yl)-5-methyl-5,6-dihydro-2H-[1,4]oxazin-3-ylamine formate]	–	6720 nM
CC1(c2cccc(-c3ccc(F)c(OCC(F)(F)F)c3)c2)COCC(N)=N1 (centres unmarked) [Example 58, 5-[4′-Fluoro-3′-(2,2,2-trifluoro-ethoxy)-biphenyl-3-yl]-5-methyl-5,6-dihydro-2H-[1,4]oxazin-3-ylamine formate]	–	8340 nM
COc1ccc2ccc(-c3cccc(C4(C)COCC(N)=N4)c3)cc2c1 (centres unmarked) [Example 59, 5-[3-(7-Methoxy-naphthalen-2-yl)-phenyl]-5-methyl-5,6-dihydro-2H-[1,4]oxazin-3-ylamine formate]	–	4390 nM
